This note sets out measurements from US4752614A, “Pharmaceutical compositions of tellerium and selenium compounds for the induction of in vivo and in vitro production of cytokines” (Bar-Ilan University, priority 1987, dated 1988).

Where “and” joins values, the source holds several entries; their conditions need not be identical. Equal values may be shown once. Entries after “also recorded” stand apart in the source; their conditions may differ. Read-outs that look alike come from different tables or passages of the source.

Data set [1] is described as follows: Dissolution in aqueous vehicles. It is filed as physicochemical. The settings on record: organic solvent or mixture, read-out: solubility (will dissolve). The text has this: The invention also contemplates a method for dissolving the compounds of the invention in an aqueous vehicle. This method comprises the use of ultrasound or mechanical agitation for an extended period of time which will dissolve the compound. Generally ultrasound is produced by a transformer which transforms 50/60 hertz, line voltage AC into high frequency electrical energy which is coupled to a transducer. By using piezoelectric ceramics, electrical frequency is converted into mechanical vibration. Typical amplitudes of 0.0003 for 40 k Hz equipment and 0.00007 to 0.001 for 20 k Hz equipment are useful. The transducer may be provided with a booster that is connected to a horn that has means for conducting the ultrasound to a container that holds the liquid for dissolving the compounds of the invention. Useful devices include small scale ultrasonic cleaners such as the Bronson instrument. […] The time required for this is usually 3 hours to 24 hours. High speed mechanical shakers such as a Tutenhauer shaker or waring blenders may be used for this purpose. The use of an electically operated agitator will cause the compounds to form a solution or dispersion after about 3 to 4 hours of agitation.
Using stirring 5.0 mg of the compound of Example 1 is dissolved under sterile conditions in 20 ml of glycerol. Thereafter 80 ml of PBS is added to form a solution containing 10 μg/0.2 ml.
It has been determined that the compound of Example 1 will dissolve as follows: […]

For a further data set, the system named is receptor sites for IL-2. Description: Detection of IL-2 receptors with fluoresceinated antibody (Example 21). Type of data set: cell-based, human. The settings on record: 1 μg/ml, 24 hours. How it is done:
This example provides an assay to detect the presence of receptor sites for IL-2. […] The cells were washed twice with PDS and then incubated with a specific fluoresceinated antibody against IL-2 receptors as described in Uchiyama et al, J. Immunol.

Data set [2] deals with IL-2. Description: Oral administration in powdered sucrose, IL-2 content (Example 13). It is filed as in vivo, mice. The note with it: for IL-2 content: oral, 24 hours. As for the experimental part: The compound of Example 1 was thoroughly mixed with powdered sucrose and 10 μg of the compound of example 1 in 25 mg of powdered sucrose was placed in the mouth of each mouse.
After 24 hours the mice were sacrificed and the spleens were processed as described above.

In data set [3] the test system is experimentally induced tumor. Description: In vivo effect on methylcholanthrene (MCA) induced tumor (Example 5). Also noted: species or system C3 Heb mice. The note with it: 10 μg IP. How it is done: A solution of 0.2% of methylcholanthrene (MCA, Sigma, USA) was prepared by dissolving 2 mg of the carcinogen in 1.0 ml of olive oil (Ref: Petra, et al., Cancer 19:302, 1961) with continuous shaking at 37° C. for 30 minutes. Six to eight week old C3 Heb mice were injected with 0.6 mg MCA/0.3 ml of solvent/mouse subcutaneously in the rear right thigh. After 21-30 days the induced tumor was surgically removed and pushed through 60 mesh stainless nets to obtain isolated cells. These cells were then further injected subcuteneously into the rear right thigh of C3 Heb mice 5 to 8 weeks of age, at a concentration of 10^6 cells/0.3 ml PBS/mouse/hypodermic needle 25 gauge, 5/8" to further induce tumor formation.
Five days after injection of the tumor cells, a palpable tumor was induced. The animals were thereafter treated as follows:
(a) control (0.2 ml 40% DMSO 60% PBS, IP 1 day after the induced tumor was palpable)
(b) 10 μg of compound of Example 1, IP to 5 mice (in 0.2 ml 40% DMSO 60% PBS, 3 days after the induced tumor was palpable and a second injection of 10 μg of compound in the same solvent was administered 5 days after the first injection to 3 of the 5 mice.
All animals expired 35 to 38 days after the initial innoculation.

The test system of a further data set is West Nile virus (WNV). Description: West Nile virus infection in mice (Example 22). It is filed as in vivo, ICR mice. The note with it: for # Alive/Total Animals: Table A; for # Alive/Total Animals / # Alive/Total: preliminary; for # Alive/Total: Table B. How it is done: The compounds may be used as anti-bacterial or anti-viral agents in plants or in animals. Virus infections such as West Nile virus infections in mice are susceptible to the compound of the Example 1 at a dose of 10 μg/day/mouse. Plant bacterial infections such as crown gall caused by Agrobacterium tumefaciens may be treated or prevented by the application of a 0.1% solution of compounds of the invention.
The effect of the compound of Example 1 on an infection with West Nile virus (WNV) was determined. WNV is a toga virus of the flavivirus group, a positive single stranded RNA virus, which when injected IP to mice usually kills them within 5-8 days as a result of extensive damage to the central nervous system. For this study ICR mice (3 wks of age) were injected IP with the virus at the concentration of 10^3 or 10^4 LD 50 units/mouse. Injections of 10 μg/0.2 ml PBS/mouse of the compound of Ex. 1 were given on day -1 (one day prior to injection of virus) and 6 days after injection of virus.
In a second experiment, mice were injected with 10^3 IPLD50 virus and received injections of the compound of Example 1 (1 μg/0.2 ml PBS/mouse) on days -1, 1, 2 and 4.

The subject of data set [4] is IL-2. Description: In vitro induction of IL-2 from mouse spleen cells (Example 7). It is filed as cell-based, male Balb-c mice. How it is done:
This example describes the in vitro making of IL-2 and CSF from mouse spleen cells using the compound of Example 1 as the extrinsic stimulating agent.
Spleens were removed from 15, male Balb-c mice 6 to 8 weeks of age. The spleen cells were pushed through stainless steel 60 mesh (U.S. standard) nets resting in 5 mm Petri dishes containing PBS in order to separate the cells. The cells were then collected into centrifuge tubes and spun at 1000 rpm for 10 minutes. The supernatant was discarded and cells were treated with 5 ml of hypotonic buffer (0.15M NH4 Cl; 0.01M KHCO3 dissolved in double distilled water, pH 7.2) for exactly two minutes. Thereafter, PBS was added to the cells and the test tubes were centrifuged for 10 minutes at 1000 rpm. The cells were rinsed twice and counted in a heamocytometer using trypan blue to test for viability. The cells were brought to a concentration of 10^7 viable cells/ml. The cells were contacted with varying amounts of the compound of Example 1 in 1 ml of 40% DMSO 60% PBS.

The term solubility denotes the dissolved amount per volume that the medium holds. Turning to `Cl[TeH]1(Cl)(Cl)OCCO1` [Example 1], the solubility in data set [1] (10% glycerol/90% pbs) was 1000 µg/mL; in data set [1] (20% glycerol/80% pbs) it was 1300 µg/mL; in data set [1] (40% glycerol/60% pbs), 6000 µg/mL. Further, in the data set on receptor sites for IL-2, the “cells positive for IL-2 receptors” value amounted to 20%. Also, the IL-2 content in the data set with IL-2 [2] (Test 1, 10 μg in 25 mg sucrose) was 250,175 cpm and 166,475 cpm; in the data set on IL-2 [2] (Test 2, 10 μg in 25 mg sucrose) it was 55,382 cpm and 41,938 cpm and 29,172 cpm. Moreover, the “induction of lymphokine production” value in the data set on IL-2 [2] (given in dry form or hydrolyzed in an aqueous diluent) is “active”. In addition, the “Vol. of Tumor (13 days)” value was 0.77 and 1.66 in data set [3] (day 3, individual mouse); 0.7 and 0.52 and 0.31 in data set [3] (day 3 and 5, individual mouse). In addition, the “susceptibility of West Nile virus infections in mice” value with West Nile virus (WNV) (10 μg/day/mouse) is “susceptible”. Moreover, the “survival beyond day 8” value with West Nile virus (WNV) (10^3 IPLD50, 1 μg/mouse days -1, 1, 2 and 4) is recorded as “Two out of the remaining three survived an additional 8 days; also recorded: the third remained alive without any manifestations of clinical symptoms”. Further, the “# Alive/Total Animals” value in the data set on West Nile virus (WNV) (10^3 LD50 virus, 10 μg/mouse days -1 and 6, after 8 days) is on record as 3/5; in the data set on West Nile virus (WNV) (10^4 LD50 virus, 10 μg/mouse days -1 and 6, after 8 days), 3/5; in the data set with West Nile virus (WNV) (no virus (0), 10 μg/mouse days -1 and 6) it was 6/6. Moreover, the “# Alive/Total” value was 3/5 in the data set on West Nile virus (WNV) (10^3 IPLD50, 1 μg/mouse days -1, 1, 2 and 4, day 8); 5/5 in the data set with West Nile virus (WNV) (compound alone, 1 μg/mouse days -1, 1, 2 and 4, day 8). The IL-2 in the data set on IL-2 [4] (5 pg) was 12,000 cpm; in the data set on IL-2 [4] (50 pg) it was 38,000 cpm; in the data set with IL-2 [4] (500 pg) it was 30,000 cpm; in the data set with IL-2 [4] (5 ng) it was 15,000 cpm; with IL-2 [4] (50 ng), 6,000 cpm; in the data set with IL-2 [4] (500 ng) it was 5,000 cpm. For the same molecule, the IL-2 in the data set on IL-2 [4] (5 μg) and in the data set on IL-2 [4] (50 μg) was 5,000 cpm in each case.
